System in one assay: not listed separately
Nature of the assay: DRUGMATRIX: Phorbol Ester radioligand binding (ligand: [3H] PDBu). Type of assay: cell membranes, Mus musculus, ICR, Brain, Membrane. The conditions noted are these: Not Active = under 50% inhibition at 10 µM.
As for `CC(=O)CCCCn1c(=O)c2c(ncn2C)n(C)c1=O` [PENTOXIFYLLINE], the IC50 entry is “Not Active” and the Ki entry is “Not Active”.
Turning to `O=C1CN=C(c2ccccc2)c2cc([N+](=O)[O-])ccc2N1` [NITRAZEPAM], the IC50 result is given as “Not Active” and the Ki result is on record as “Not Active”.

The target in the next assay is T1, Neuropeptide Y receptor type 1 (Homo sapiens, UniProt P25929). Further: in other assays of this panel Not Active means under 50% inhibition at 10 µM.
T1 sequence (P25929 whole entry): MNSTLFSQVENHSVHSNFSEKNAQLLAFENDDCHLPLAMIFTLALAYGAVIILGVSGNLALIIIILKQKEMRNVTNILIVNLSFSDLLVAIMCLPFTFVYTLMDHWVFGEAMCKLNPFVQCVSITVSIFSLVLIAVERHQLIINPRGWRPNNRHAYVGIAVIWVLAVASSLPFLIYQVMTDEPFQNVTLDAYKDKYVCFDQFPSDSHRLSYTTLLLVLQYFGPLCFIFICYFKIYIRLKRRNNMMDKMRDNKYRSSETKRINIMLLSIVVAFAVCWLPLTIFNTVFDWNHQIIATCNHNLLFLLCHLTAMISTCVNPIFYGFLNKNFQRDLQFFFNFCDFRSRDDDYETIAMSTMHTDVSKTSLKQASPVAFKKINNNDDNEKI
Experiment: not given
The class given is cell membranes, Membrane. To be noted: sk-n-mc.
Take `CC(=O)CCCCn1c(=O)c2c(ncn2C)n(C)c1=O` [PENTOXIFYLLINE]: the IC50 entry is given as “Not Active”.
The same measure, in the same setting: under `O=C1CN=C(c2ccccc2)c2cc([N+](=O)[O-])ccc2N1` [NITRAZEPAM] stands “Not Active”.

The target of the next assay is Estrogen receptor beta (Homo sapiens, UniProt Q92731). Further: in other assays of this panel Not Active means under 50% inhibition at 10 µM.
Estrogen receptor beta, sequence (Q92731 whole entry): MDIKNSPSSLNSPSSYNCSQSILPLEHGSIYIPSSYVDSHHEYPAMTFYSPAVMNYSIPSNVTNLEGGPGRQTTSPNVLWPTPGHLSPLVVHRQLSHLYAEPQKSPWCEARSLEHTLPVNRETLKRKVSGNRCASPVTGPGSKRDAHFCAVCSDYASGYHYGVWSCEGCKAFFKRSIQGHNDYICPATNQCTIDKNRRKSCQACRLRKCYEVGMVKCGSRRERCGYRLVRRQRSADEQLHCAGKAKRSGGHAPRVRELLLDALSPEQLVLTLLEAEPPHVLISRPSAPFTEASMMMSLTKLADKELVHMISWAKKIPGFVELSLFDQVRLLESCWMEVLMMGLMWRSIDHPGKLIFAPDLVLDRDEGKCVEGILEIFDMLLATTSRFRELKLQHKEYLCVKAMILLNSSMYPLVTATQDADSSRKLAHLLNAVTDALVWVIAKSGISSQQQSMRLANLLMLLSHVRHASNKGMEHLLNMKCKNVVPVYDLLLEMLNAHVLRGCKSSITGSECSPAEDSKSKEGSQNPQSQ
Experiment: not given
The conditions noted are these: sf9.
Consider `CC(=O)CCCCn1c(=O)c2c(ncn2C)n(C)c1=O` [PENTOXIFYLLINE], for which the IC50 result was “Not Active”.
The same measure, in the same setting: with `O=C1CN=C(c2ccccc2)c2cc([N+](=O)[O-])ccc2N1` [NITRAZEPAM] the entry was “Not Active”.

System in the next assay: not listed separately
Description: DRUGMATRIX: ATPase, Na+/K+ enzyme inhibition (substrate: ATP). Type of assay: tissue-based, Sus scrofa, Heart. The conditions noted are these: Not Active = under 50% inhibition at 10 µM.
With `CC(=O)CCCCn1c(=O)c2c(ncn2C)n(C)c1=O` [PENTOXIFYLLINE], the IC50 entry was “Not Active” and the Ki result is reported as “Not Active”.
`O=C1CN=C(c2ccccc2)c2cc([N+](=O)[O-])ccc2N1` [NITRAZEPAM]: the IC50 entry was “Not Active” and the Ki result is “Not Active”.

The target in a further assay is C-C chemokine receptor type 2 (Homo sapiens, UniProt P41597). Further: in other assays of this panel Not Active means under 50% inhibition at 10 µM.
C-C chemokine receptor type 2, sequence (P41597 whole entry): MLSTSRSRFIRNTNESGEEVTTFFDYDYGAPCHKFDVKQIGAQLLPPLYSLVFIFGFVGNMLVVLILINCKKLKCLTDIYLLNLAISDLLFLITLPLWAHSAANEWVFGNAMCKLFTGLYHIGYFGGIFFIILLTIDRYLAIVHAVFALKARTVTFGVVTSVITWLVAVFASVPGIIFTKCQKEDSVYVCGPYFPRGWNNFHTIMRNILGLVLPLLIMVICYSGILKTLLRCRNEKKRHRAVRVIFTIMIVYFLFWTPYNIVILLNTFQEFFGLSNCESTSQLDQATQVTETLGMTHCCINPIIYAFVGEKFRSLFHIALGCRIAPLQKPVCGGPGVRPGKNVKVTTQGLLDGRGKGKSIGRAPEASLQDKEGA
Experiment: not given
Type of assay: cell membranes, CHO-K1, Membrane. To be noted: cho-k1.
As to `CC(=O)CCCCn1c(=O)c2c(ncn2C)n(C)c1=O` [PENTOXIFYLLINE], the IC50 result is on record as “Not Active”.
Still for that read-out and setting: with `O=C1CN=C(c2ccccc2)c2cc([N+](=O)[O-])ccc2N1` [NITRAZEPAM] the entry was “Not Active”.

The target of another assay is cGMP-specific 3',5'-cyclic phosphodiesterase (Homo sapiens, UniProt O76074). Nature of the assay: DRUGMATRIX: Phosphodiesterase PDE5 enzyme inhibition (substrate: [3H]cGMP + cGMP). The class given is tissue-based, Platelet. The conditions noted are these: platelet; Not Active = under 50% inhibition at 10 µM.
Regarding `CC(=O)CCCCn1c(=O)c2c(ncn2C)n(C)c1=O` [PENTOXIFYLLINE], the IC50 result is recorded as “Not Active”.
With `O=C1CN=C(c2ccccc2)c2cc([N+](=O)[O-])ccc2N1` [NITRAZEPAM], the IC50 entry was “Not Active”.

A further assay has as its target T2, C-C chemokine receptor type 4 (Homo sapiens, UniProt P51679). Further: in other assays of this panel Not Active means under 50% inhibition at 10 µM.
T2 sequence (P51679 whole entry): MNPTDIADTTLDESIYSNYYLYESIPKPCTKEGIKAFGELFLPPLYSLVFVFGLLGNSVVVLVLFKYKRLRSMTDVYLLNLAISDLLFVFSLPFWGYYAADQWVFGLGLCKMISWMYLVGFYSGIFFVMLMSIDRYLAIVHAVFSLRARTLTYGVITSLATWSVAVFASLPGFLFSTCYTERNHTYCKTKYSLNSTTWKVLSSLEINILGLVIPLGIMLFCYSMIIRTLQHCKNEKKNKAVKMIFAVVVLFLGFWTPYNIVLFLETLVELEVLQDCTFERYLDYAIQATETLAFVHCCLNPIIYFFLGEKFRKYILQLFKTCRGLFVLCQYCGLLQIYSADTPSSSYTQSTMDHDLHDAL
Experiment: not given
The class given is cell membranes, Membrane. To be noted: chem-1.
As to `CC(=O)CCCCn1c(=O)c2c(ncn2C)n(C)c1=O` [PENTOXIFYLLINE], the IC50 result is “Not Active”.
Still for that read-out and setting: under `O=C1CN=C(c2ccccc2)c2cc([N+](=O)[O-])ccc2N1` [NITRAZEPAM] stands “Not Active”.

System in the next assay: not listed separately
Nature of the assay: DRUGMATRIX: Glutamate, AMPA radioligand binding (ligand: [3H] AMPA). Type of assay: cell membranes, Rattus norvegicus, Wistar, Cerebral cortex, Membrane. To be noted: Not Active = under 50% inhibition at 10 µM.
For the compound `CC(=O)CCCCn1c(=O)c2c(ncn2C)n(C)c1=O` [PENTOXIFYLLINE], the IC50 entry was “Not Active” and the Ki entry is given as “Not Active”.
`O=C1CN=C(c2ccccc2)c2cc([N+](=O)[O-])ccc2N1` [NITRAZEPAM]: the IC50 entry is recorded as “Not Active” and the Ki result is reported as “Not Active”.

For another assay, the target named is T3, Nitric oxide synthase, inducible (Mus musculus, UniProt P29477).
T3 sequence (P29477 whole entry): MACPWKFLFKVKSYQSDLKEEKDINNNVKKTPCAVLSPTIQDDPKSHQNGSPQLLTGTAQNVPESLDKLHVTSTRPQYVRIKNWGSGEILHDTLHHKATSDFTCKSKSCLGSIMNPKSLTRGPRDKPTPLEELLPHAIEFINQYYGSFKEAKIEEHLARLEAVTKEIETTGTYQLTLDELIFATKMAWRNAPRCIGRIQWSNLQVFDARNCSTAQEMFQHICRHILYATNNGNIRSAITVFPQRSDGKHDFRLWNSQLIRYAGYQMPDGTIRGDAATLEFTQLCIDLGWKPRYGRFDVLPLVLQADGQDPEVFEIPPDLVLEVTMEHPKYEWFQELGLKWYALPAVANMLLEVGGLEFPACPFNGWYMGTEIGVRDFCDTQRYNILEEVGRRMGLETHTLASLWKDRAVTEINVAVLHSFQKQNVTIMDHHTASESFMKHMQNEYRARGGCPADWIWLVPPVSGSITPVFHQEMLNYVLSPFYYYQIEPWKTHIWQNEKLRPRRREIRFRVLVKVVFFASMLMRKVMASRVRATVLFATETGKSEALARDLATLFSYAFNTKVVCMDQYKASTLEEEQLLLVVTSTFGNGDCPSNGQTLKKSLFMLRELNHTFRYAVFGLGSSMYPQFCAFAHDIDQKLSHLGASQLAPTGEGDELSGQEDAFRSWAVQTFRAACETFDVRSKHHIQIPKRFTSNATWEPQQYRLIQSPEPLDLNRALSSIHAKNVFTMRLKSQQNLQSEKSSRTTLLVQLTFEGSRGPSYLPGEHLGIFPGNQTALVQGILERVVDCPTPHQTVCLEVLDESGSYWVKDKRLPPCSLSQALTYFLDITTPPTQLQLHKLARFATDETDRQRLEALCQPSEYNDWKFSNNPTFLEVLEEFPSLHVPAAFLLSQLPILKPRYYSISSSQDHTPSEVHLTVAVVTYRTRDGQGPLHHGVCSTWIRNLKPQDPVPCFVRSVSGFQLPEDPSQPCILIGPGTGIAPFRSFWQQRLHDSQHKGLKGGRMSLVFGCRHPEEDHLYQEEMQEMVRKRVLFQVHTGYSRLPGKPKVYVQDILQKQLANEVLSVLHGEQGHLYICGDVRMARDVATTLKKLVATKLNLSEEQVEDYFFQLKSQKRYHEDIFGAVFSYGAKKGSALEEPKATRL
Experiment: not given
More on the design: species or system Escherichia coli.
Conditions: not given
For `CC(=O)CCCCn1c(=O)c2c(ncn2C)n(C)c1=O` [PENTOXIFYLLINE], the IC50 entry is reported as “Not Active”.
Take `O=C1CN=C(c2ccccc2)c2cc([N+](=O)[O-])ccc2N1` [NITRAZEPAM]: the IC50 entry is “Not Active”.

For the next assay, the target named is Insulin receptor (Rattus norvegicus, UniProt P15127). Further: in other assays of this panel Not Active means under 50% inhibition at 10 µM.
Insulin receptor, sequence (P15127 27-759 limits assumed): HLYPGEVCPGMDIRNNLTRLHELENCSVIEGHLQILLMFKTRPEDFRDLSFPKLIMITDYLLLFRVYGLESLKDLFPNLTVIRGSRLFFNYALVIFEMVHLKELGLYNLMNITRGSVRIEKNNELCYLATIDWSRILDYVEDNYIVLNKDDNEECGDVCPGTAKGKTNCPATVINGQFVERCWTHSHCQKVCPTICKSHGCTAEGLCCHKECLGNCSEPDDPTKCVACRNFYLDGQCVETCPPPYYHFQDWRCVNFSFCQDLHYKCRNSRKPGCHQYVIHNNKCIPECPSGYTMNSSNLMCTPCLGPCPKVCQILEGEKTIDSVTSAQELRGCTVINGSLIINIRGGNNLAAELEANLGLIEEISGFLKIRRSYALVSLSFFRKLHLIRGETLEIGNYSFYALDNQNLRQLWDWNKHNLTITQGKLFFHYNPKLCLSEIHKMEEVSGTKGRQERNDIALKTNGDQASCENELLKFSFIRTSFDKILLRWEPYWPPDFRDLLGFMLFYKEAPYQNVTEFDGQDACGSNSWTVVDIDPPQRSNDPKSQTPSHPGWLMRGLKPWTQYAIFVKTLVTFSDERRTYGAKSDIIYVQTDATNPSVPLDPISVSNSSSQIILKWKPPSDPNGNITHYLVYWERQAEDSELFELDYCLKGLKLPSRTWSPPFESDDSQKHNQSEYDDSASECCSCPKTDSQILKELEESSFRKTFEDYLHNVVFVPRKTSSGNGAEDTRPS
Insulin receptor, sequence (P15127 764-1383 limits assumed): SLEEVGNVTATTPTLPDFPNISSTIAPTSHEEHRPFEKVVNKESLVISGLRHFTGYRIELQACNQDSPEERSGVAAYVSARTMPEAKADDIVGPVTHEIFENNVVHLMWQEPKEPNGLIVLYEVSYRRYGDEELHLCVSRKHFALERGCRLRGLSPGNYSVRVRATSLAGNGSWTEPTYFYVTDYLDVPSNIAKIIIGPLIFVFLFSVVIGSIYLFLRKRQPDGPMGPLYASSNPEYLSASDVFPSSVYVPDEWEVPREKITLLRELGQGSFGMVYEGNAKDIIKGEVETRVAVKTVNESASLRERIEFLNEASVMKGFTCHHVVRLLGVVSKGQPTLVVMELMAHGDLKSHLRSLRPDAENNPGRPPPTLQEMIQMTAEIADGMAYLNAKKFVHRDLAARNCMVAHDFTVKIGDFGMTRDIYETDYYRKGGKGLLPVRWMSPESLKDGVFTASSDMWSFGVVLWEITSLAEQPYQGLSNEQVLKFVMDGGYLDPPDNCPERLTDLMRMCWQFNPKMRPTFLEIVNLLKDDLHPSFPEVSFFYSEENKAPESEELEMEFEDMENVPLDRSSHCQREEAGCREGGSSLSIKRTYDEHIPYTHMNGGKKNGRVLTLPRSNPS
Experiment: not given
Conditions: not given
Type of assay: cell membranes, Wistar, Liver, Membrane.
For the compound `CC(=O)CCCCn1c(=O)c2c(ncn2C)n(C)c1=O` [PENTOXIFYLLINE], the IC50 entry was “Not Active”.
On the same count and under the same terms, under `O=C1CN=C(c2ccccc2)c2cc([N+](=O)[O-])ccc2N1` [NITRAZEPAM] stands “Not Active”.

For another assay, the target named is T4, Neutrophil elastase (Homo sapiens, UniProt P08246).
T4 sequence (P08246 whole entry): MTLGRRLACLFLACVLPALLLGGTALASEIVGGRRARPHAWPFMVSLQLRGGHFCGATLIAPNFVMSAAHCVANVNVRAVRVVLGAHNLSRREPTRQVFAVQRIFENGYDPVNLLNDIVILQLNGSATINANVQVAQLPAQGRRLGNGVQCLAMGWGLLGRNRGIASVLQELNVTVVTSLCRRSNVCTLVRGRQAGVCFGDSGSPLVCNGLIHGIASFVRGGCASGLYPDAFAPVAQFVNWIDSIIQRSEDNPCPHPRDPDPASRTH
Experiment: not given
Type of assay: tissue-based.
Conditions: not given
For `CC(=O)CCCCn1c(=O)c2c(ncn2C)n(C)c1=O` [PENTOXIFYLLINE], the IC50 result is listed as “Not Active”.
On the same count and under the same terms, under `O=C1CN=C(c2ccccc2)c2cc([N+](=O)[O-])ccc2N1` [NITRAZEPAM] stands “Not Active”.

System in the next assay: not listed separately
Nature of the assay: DRUGMATRIX: Glutamate, Kainate radioligand binding (ligand: [3H] Kainic acid). The class given is cell membranes, Rattus norvegicus, Wistar, Brain, Membrane. The conditions noted are these: Not Active = under 50% inhibition at 10 µM.
Turning to `CC(=O)CCCCn1c(=O)c2c(ncn2C)n(C)c1=O` [PENTOXIFYLLINE], the IC50 entry is “Not Active” and the Ki entry is recorded as “Not Active”.
Turning to `O=C1CN=C(c2ccccc2)c2cc([N+](=O)[O-])ccc2N1` [NITRAZEPAM], the IC50 entry is “Not Active” and the Ki entry was “Not Active”.

A further assay concerns the target T5, Leukotriene C4 synthase (Cavia porcellus, UniProt A6XA80).
T5 sequence (A6XA80 whole entry): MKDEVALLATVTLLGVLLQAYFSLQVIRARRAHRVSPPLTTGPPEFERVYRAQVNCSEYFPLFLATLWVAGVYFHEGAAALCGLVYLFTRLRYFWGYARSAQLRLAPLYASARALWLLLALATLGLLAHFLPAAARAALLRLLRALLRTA
Nature of the assay: biochemical.
Conditions: not given
Type of assay: tissue-based, Lung.
`CC(=O)CCCCn1c(=O)c2c(ncn2C)n(C)c1=O` [PENTOXIFYLLINE]: the IC50 result is reported as “Not Active”.
On to `O=C1CN=C(c2ccccc2)c2cc([N+](=O)[O-])ccc2N1` [NITRAZEPAM], for which the IC50 entry is “Not Active”.

For the origin of these results see ChEMBL document CHEMBL1909046, “DrugMatrix in vitro pharmacology data”.
